Test results: patent US8927761B2, “Form of hexyl-5-aminolevulinate hydrochloride and methods of using the same” (Photocure ASA, priority 2012, dated 2015)

Experiment: Hot stage microscopy: conversion between solid forms on heating
Assay type: physicochemical
Conditions: solid state; conversion to the new Form shown by observed change in crystal morphology
Method: Hot stage microscopy was performed using a Linkam hot stage (model FTIR 600) mounted on a Leica DM LP microscope. Sample was observed using a 20× objective. Sample was placed on a coverslip, and a second coverslip was then placed over the sample. Each sample was visually observed as the stage was heated. The hot stage was calibrated using USP melting point standards.
Characteristic data for new Form C was obtained with X-ray powder diffraction (XRPD), differential scanning calorimetry (DSC), hot stage microscopy, infrared spectroscopy (IR), Raman spectroscopy, and solid state ^13C cross polarization magic angle spinning nuclear magnetic resonance spectroscopy. The new Form is a crystalline material that melts near 99° C. […] The particle morphology is observed as rays, lathe, and/or blades. The new Form is the thermodynamically stable form above 65° C.

For CCCCCCOC(=O)CCC(=O)CN.Cl [Form C, hexyl 5-aminolevulinate hydrochloride], the “temperature range in which the new Form is the thermodynamically stable form” value was “above 65 °C”.
